# Source: paper PMC4821887, “Identification of chemicals that mimic transcriptional changes associated with autism, brain aging and neurodegeneration” (Nature Communications, 2016)
# Where a name gives a salt, the structure may show the parent alone. Read-outs that look alike come from different tables or passages of the source.
# System: mouse cortical neuron cultures
SMILES,% Dead cells (vehicle subtracted) [%],"% Dead cells (vehicle subtracted) (mouse, 24 h, 10 µM) [%]",other results
CCOc1nc(F)cc2nc(S(=O)(=O)Nc3c(Cl)cccc3Cl)nn12 [Diclosulam],0.003204,,
OC(c1ccc(Cl)cc1)(c1ccc(Cl)cc1)C(Cl)(Cl)Cl [Dicofol],,1.054,
COP(=O)(OC)O/C(C)=C/C(=O)N(C)C [Dicrotophos],-0.1238,,
CCCCC(CC)COC(=O)c1ccccc1C(=O)OCC(CC)CCCC (stereo not drawn) [Diethylhexyl phthalate (DEHP)],-0.2848,,
CC1COC(Cn2cncn2)(c2ccc(Oc3ccc(Cl)cc3)cc2Cl)O1 (stereo not drawn) [Difenoconazole],-2.028,,
COCC(C)N(C(=O)CCl)c1c(C)csc1C (stereo not drawn) [Dimethenamid],,-0.353,
CNC(=O)CSP(=S)(OC)OC [Dimethoate],-3.6,,
COc1ccc(C(=CC(=O)N2CCOCC2)c2ccc(Cl)cc2)cc1OC [Dimethomorph],,-1.666,
COC(=O)c1ccccc1C(=O)OC [Dimethyl phthalate],1.872,,
c1ccc(Nc2ccccc2)cc1 [Diphenylamine],,2.557,
CCOP(=S)(OCC)SCCSCC [Disulfoton],2.557,,
CN(C)C(=O)Nc1ccc(Cl)c(Cl)c1 [Diuron],-0.632,,
CCCN(CCC)C(=O)SCC [EPTC],3.437,,
O=S1OCC2C(CO1)C1(Cl)C(Cl)=C(Cl)C2(Cl)C1(Cl)Cl (stereo not drawn) [Endosulfan],-0.8816,,
CC(C)[C@H](C(=O)O[C@H](C#N)c1cccc(Oc2ccccc2)c1)c1ccc(Cl)cc1 [Esfenvalerate],4.898,,
C=C(C)CN(CC)c1c([N+](=O)[O-])cc(C(F)(F)F)cc1[N+](=O)[O-] [Ethalfluralin],,1.146,
O=P(O)(O)CCCl [Ethephon],,-0.1299,
CCOC1Oc2ccc(OS(C)(=O)=O)cc2C1(C)C (stereo not drawn) [Ethofumesate],-0.3872,,
S=C1NCCN1 [Ethylenethiourea (2-Imidazolidinethione)],-0.5482,,
CCOc1cc(C(C)(C)C)ccc1C1COC(c2c(F)cccc2F)=N1 (stereo not drawn) [Etoxazole],-1.186,,
CCOP(=O)(NC(C)C)Oc1ccc(SC)c(C)c1 (stereo not drawn) [Fenamiphos],5.708,,
OC(c1ccc(Cl)cc1)(c1cncnc1)c1ccccc1Cl (stereo not drawn) [Fenarimol],-1.829,,
CC1(C(=O)Nc2ccc(O)c(Cl)c2Cl)CCCCC1 [Fenhexamid],,-0.6431,
COP(=S)(OC)Oc1ccc([N+](=O)[O-])c(C)c1 [Fenitrothion],-1.338,,
CCOC(=O)C(C)Oc1ccc(Oc2nc3ccc(Cl)cc3o2)cc1 (stereo not drawn) [Fenoxaprop-ethyl],,9.924,
CC1(C)C(C(=O)OC(C#N)c2cccc(Oc3ccccc3)c2)C1(C)C (stereo not drawn) [Fenpropathrin (Danitol)],-1.601,,
COP(=S)(OC)Oc1ccc(SC)c(C)c1 [Fenthion],-0.5799,,

SMILES,% Dead cells (vehicle subtracted) [%],"% Dead cells (vehicle subtracted) (mouse, 24 h, 10 µM) [%]",other results
CCCCOC(=O)C(C)Oc1ccc(Oc2ccc(C(F)(F)F)cn2)cc1 (stereo not drawn) [Fluazifop-butyl],,7.788,"% Dead cells (vehicle subtracted) (mouse, 24 h, 0.01 µM): 0.215%; % Dead cells (vehicle subtracted) (mouse, 24 h, 0.1 µM): -0.165%; % Dead cells (vehicle subtracted) (mouse, 24 h, 1 µM): 23.9839%"
N#Cc1c[nH]cc1-c1cccc2c1OC(F)(F)O2 [Fludioxonil],-2.856,,
CCOC(=O)COc1cc(-n2ncc(C(F)(F)F)c(C)c2=O)c(F)cc1Cl [Flufenpyr-ethyl],-1.575,,
CCN(Cc1c(F)cccc1Cl)c1c([N+](=O)[O-])cc(C(F)(F)F)cc1[N+](=O)[O-] [Flumetralin],1.368,,
Cc1ccn2nc(S(=O)(=O)Nc3c(F)cccc3F)nc2n1 [Flumetsulam],,0.4495,
CCCCCOC(=O)COc1cc(N2C(=O)C3=C(CCCC3)C2=O)c(F)cc1Cl [Flumiclorac-pentyl],,-0.6581,
C#CCN1C(=O)COc2cc(F)c(N3C(=O)C4=C(CCCC4)C3=O)cc21 [Flumioxazin],7.054,,
CN(C)C(=O)Nc1cccc(C(F)(F)F)c1 [Fluometuron],,0.2278,
CCCCCCC(C)OC(=O)COc1nc(F)c(Cl)c(N)c1Cl (stereo not drawn) [Fluroxypyr-meptyl],-1.2099,,
Nc1c(Cl)c(F)nc(OCC(=O)O)c1Cl [Fluroxypyr],,-1.905,
C[Si](Cn1cncn1)(c1ccc(F)cc1)c1ccc(F)cc1 [Flusilazole],,-0.05737,
COC(=O)CSc1cc(/N=c2\sc(=O)n3n2CCCC3)c(F)cc1Cl [Fluthiacet-methyl],,-0.383,
CC(C)Oc1cccc(NC(=O)c2ccccc2C(F)(F)F)c1 [Flutolanil],9.589,,
O=C1c2ccccc2C(=O)N1SC(Cl)(Cl)Cl [Folpet],,-1.248,
O=C(Nc1ccccc1)Nc1ccnc(Cl)c1 [Forchlorfenuron],0.6006,,
CNC(=O)Oc1cccc(N=CN(C)C)c1 [Formetanate hydrochloride],1.887,,
CCOP(=O)(SC(C)CC)N1CCSC1=O (stereo not drawn) [Fosthiazate],-0.4742,,
CCCCC(O)(Cn1cncn1)c1ccc(Cl)cc1Cl (stereo not drawn) [Hexaconazole],,-2.068,
CN(C)c1nc(=O)n(C2CCCCC2)c(=O)n1C [Hexazinone],,-2.629,
C[C@@H]1[C@@H](c2ccc(Cl)cc2)SC(=O)N1C(=O)NC1CCCCC1 [Hexythiazox],0.5871,,
CCC(C)OC(=O)N1CCCCC1CCO (stereo not drawn) [Icaridin],2.044,,
C=CCOC(Cn1ccnc1)c1ccc(Cl)cc1Cl (stereo not drawn) [Imazalil],0.2633,,
COCc1cnc(C2=NC(C)(C(C)C)C(=O)N2)c(C(=O)O)c1 (stereo not drawn) [Imazamox],-0.1553,,
CC(C)C1(C)N=C(c2ncccc2C(=O)O)NC1=O (stereo not drawn) [Imazapyr],,1.122,
CC(C)C1(C)N=C(c2nc3ccccc3cc2C(=O)O)NC1=O (stereo not drawn) [Imazaquin],-2.73,,
CCc1cnc(C2=NC(C)(C(C)C)C(=O)N2)c(C(=O)O)c1 (stereo not drawn) [Imazethapyr],,4.704,
O=[N+]([O-])NC1=NCCN1Cc1ccc(Cl)nc1 [Imidacloprid],,-3.0763,
